We go through 13 molecules from patent US7846956B2, “Malononitrile compound as pesticides” (Sumitomo Chemical Company, Limited, priority 2004, dated 2010).

Molecules are shown by their SMILES.

Holding throughout (type): in vivo
The test system of assay [1] is Musca domestics. Nature of the assay: Experimental Example 3: filter paper test with sucrose bait, death rate of Musca domestics. The conditions noted are these: 500 ppm active ingredient, 0.7 ml on filter paper, 10 female imagoes, after 24 hours, read-out: death rate of the pest. On the procedure: Preparations of the present compounds (1), (2), (3), (4), (5), (6), (8), (9), (10), (11), (12), (13), (14), (15), (16), (17), (18), (19), (21), (22), (23), (24), (25), (26), (27), (31), (34), (35), (36), (37), (38), (39), (40), (42), (47), (50), (52), (54), (66), (67) and (68) obtained according to Formulation Example 5 were diluted with water so that the active ingredient concentration was 500 ppm to prepare experimental pesticidal solutions.
A filter paper having a diameter of 5.5 cm was spread on the bottom of a polyethylene cup having a diameter of 5.5 cm and 0.7 ml of the experimental pesticidal solution was added dropwise onto the filter paper. As a bait 30 mg of sucrose was uniformly placed on the filter paper. Into the polyethylene cup, 10 female Musca domestics imagoes were released and the cup was sealed with a lid. After 24 hours, the number of surviving Musca domestics was examined and the death rate of the pest was calculated.

For assay [2], the system named is Blattalla germanica. Nature of the assay: Experimental Example 4: filter paper test with sucrose bait, death rate of Blattalla germanica. The conditions noted are these: 144 h; 500 ppm active ingredient, 0.7 ml on filter paper; two male imagoes; after 6 days. On the procedure: Preparations of the present compounds (2), (4), (5), (6), (8), (9), (11), (12), (13), (15), (17), (18), (19), (21), (24), (25), (26), (27), (35), (36), (37), (38), (40), (41), (42), (47), (50), (52), (54), (62), (64), (65), (66) and (68) obtained according to Formulation Example 5 were diluted with water so that the active ingredient concentration was 500 ppm to prepare experimental pesticidal solutions.
A filter paper having a diameter of 5.5 cm was spread on the bottom of a polyethylene cup having a diameter of 5.5 cm and 0.7 ml of the experimental pesticidal solution was added dropwise onto the filter paper. As a bait 30 mg of sucrose was uniformly placed on the filter paper. Into the polyethylene cup, two male Blattalla gexmanica images were released and the cup was sealed with a lid. After 6 days, the number of surviving Blattalla germanica was examined and the death rate of the pest was calculated.

For assay [3], the system named is Culex pipiens pallens. Briefly: Experimental Example 5: larvae in treated water, death rate of Culex pipiens pallens. The conditions noted are these: 24 h, active ingredient concentration 3.5 ppm in water, 20 last-instar larvae, after one day, read-out: death rate of the pest. How it is done: Preparations of the present compounds (1), (2), (4), (5), (6), (8), (9), (11), (12), (13), (14), (15), (16), (17), (18), (19), (21), (22), (23), (24), (25), (26), (27), (31), (33), (34), (35), (36), (37), (38), (39), (40), (42), (43), (47), (48), (50), (52), (53), (54), (62), (64), (65), (66), (67), (68) and (70) obtained according to Formulation Example 5 were diluted with water so that the active ingredient concentration was 500 ppm to prepare experimental pesticidal solutions.
0.7 ml of the experimental pesticidal solution was added to 100 mL of ion-exchanged water (active ingredient concentration: 3.5 ppm). Into the solution, 20 last-instar larvae of Culex pipiens pallens were released. After one day, the surviving number was examined and the death rate of the pest was calculated.

Take `CC(c1cnn(C(C)(C)C)c1)C(C#N)(C#N)CCC(F)(F)F` (stereo not drawn) [present compound (27)]: the pest or weed control at 500 ppm in assay [1] is not below 90%; in assay [2], 100%. Moreover, the pest or weed control at 3.5 ppm in assay [3] was not below 95%.

On to `N#CC(C#N)(CCC(F)(F)F)Cc1cc(C(F)(F)F)on1` [present compound (35)], for which the pest or weed control at 500 ppm in assay [1] is not below 90%; in assay [2] it was 100%. In addition, the pest or weed control at 3.5 ppm in assay [3] is not below 95%.

Consider `CC(c1cc(C(F)(F)F)on1)C(C#N)(C#N)CCC(F)(F)F` (stereo not drawn) [present compound (36)], for which the pest or weed control at 500 ppm was not below 90% in assay [1] and 100% in assay [2]. Besides, the pest or weed control at 3.5 ppm in assay [3] is not below 95%.

In the case of `CCC(c1cc(C(F)(F)F)on1)C(C#N)(C#N)CCC(F)(F)F` (stereo not drawn) [present compound (37)], the pest or weed control at 500 ppm in assay [1] is not below 90%; in assay [2], 100%. Also, the pest or weed control at 3.5 ppm in assay [3] is not below 95%.

`N#CC(C#N)(CCC(F)(F)F)Cc1cc(C(F)(F)C(F)(F)F)on1` [present compound (38)]: the values for the pest or weed control at 500 ppm in assay [1] and in assay [2] were not below 90% and 100%, respectively. Also, the pest or weed control at 3.5 ppm in assay [3] was not below 95%.

In the case of `CC(C)c1cc(CC(C#N)(C#N)CCC(F)(F)F)no1` [present compound (40)], the pest or weed control at 500 ppm in assay [1] is not below 90%; in assay [2], 100%. The pest or weed control at 3.5 ppm in assay [3] was not below 95%.

For `CC(c1cc(C(C)(C)C)on1)C(C#N)(C#N)CCC(F)(F)F` (stereo not drawn) [present compound (42)], the values for the pest or weed control at 500 ppm in assay [1] and in assay [2] were not below 90% and 100%, respectively. Moreover, in assay [3], the pest or weed control at 3.5 ppm is not below 95%.

As to `N#CC(C#N)(CCC(F)(F)F)Cc1cc(C(F)F)on1` [present compound (47)], the pest or weed control at 500 ppm was not below 90% in assay [1] and 100% in assay [2]. In assay [3], the pest or weed control at 3.5 ppm is not below 95%.

In the case of `CC(F)c1cc(CC(C#N)(C#N)CCC(F)(F)F)no1` (stereo not drawn) [present compound (50)], the values for the pest or weed control at 500 ppm in assay [1] and in assay [2] were not below 90% and 100%, respectively. For the same molecule, in assay [3], the pest or weed control at 3.5 ppm is not below 95%.

On to `CC(F)(F)c1cc(CC(C#N)(C#N)CCC(F)(F)F)no1` [present compound (52)], for which the values for the pest or weed control at 500 ppm in assay [1] and in assay [2] were not below 90% and 100%, respectively. In addition, in assay [3], the pest or weed control at 3.5 ppm is not below 95%.

For `CC(C)(F)c1cc(CC(C#N)(C#N)CCC(F)(F)F)no1` [present compound (54)], the pest or weed control at 500 ppm in assay [1] is not below 90%; in assay [2], 100%. Also, the pest or weed control at 3.5 ppm in assay [3] was not below 95%.

Consider `C=CC(c1cc(C(C)(C)O)on1)C(C#N)(C#N)CCC(F)(F)F` (stereo not drawn) [present compound (66)], for which the pest or weed control at 500 ppm in assay [1] was not below 90%; in assay [2] it was 100%. Besides, the pest or weed control at 3.5 ppm in assay [3] was not below 95%.

Regarding `COc1cc(CC(C#N)(C#N)CCC(F)(F)F)on1` [present compound (68)], the pest or weed control at 500 ppm in assay [1] was not below 90%; in assay [2], 100%. The pest or weed control at 3.5 ppm in assay [3] was not below 95%.
